According to patent US20260034192A1 (University of Saskatchewan, priority 2022, published 2026):
“And” between values parts separate entries of the source, which are not always exact repeats. Equal values may be shown once. Marks after values point to notes of the source that are not given here. Square brackets hold non-standard residues; d marks the D form. Peptide text beside a SMILES is read from it. dPhe(4-Cl) = N[C@H](Cc1ccc(Cl)cc1)C(=O)O; d2Nal = N[C@H](Cc1ccc2ccccc2c1)C(=O)O; dCit = NC(=O)NCCC[C@@H](N)C(=O)O; d3Pal = N[C@H](Cc1cccnc1)C(=O)O

What was measured:
[1] = tested on: alpacas; assay: Alpaca random day study, single Cetrorelix injection (Example 3); type: in vivo; settings: for Duration from treatment to next wave emergence, mean / Variance of duration from treatment to wave emergence (synchrony): alpacas, n = 15, single i/m 1.5 mg on random day of wave
Method: Methods: Ultrasonographic methods and follicular endpoint recording were similar to those described in Example 2. Follicular endpoints were obtained from alpacas (n=15) before and after treatment, therefore each animal acts as its own control. A fixed calendar day (July 16) was pre-assigned for Cetrorelix treatment. Daily transrectal ultrasonography was performed (n=15 alpacas) from May 31 to June 16. This examination period was used to record the variance in wave emergence from a fixed calendar date (May 31) without giving treatment (control period). Animals were at unknown/random day of the wave at the beginning of this 17-day time-window (i.e., longer than one natural inter-wave interval); therefore, all animals were expected to have at least one wave emergence encompassing this period. All alpacas were treated with a single intramuscular injection of 1.5 mg (3 mL) Cetrorelix acetate on July 16 and daily ultrasound examinations continued from the day of treatment until Day 3 after the next (post-treatment) wave emergence (treatment period). Synchrony of wave emergence was compared between the control period and the treatment period.
Statistical analyses: A Proc Mixed repeated measures analysis of variance (SAS version 9.4) was performed to compare serial data (follicle size and follicle numbers changes over days) and ANOVA or paired T-test were used for single-point numerical measurements. Count data were compared using Fisher's Exact test. Synchrony of the wave emergence was compared using Barlett's and Levene's tests of homogeneity of the variance.

[2] = tested on: heifers; assay: Single 3 mg Cetrorelix injection on Day 1, 3 or 6 of wave in heifers (Example 5); type: in vivo, cattle; settings: for Pregnant/AI: diagnosis 30 days after AI; for Ovulatory follicle size: in mm (unit assumed)
Method: Heifers on a random day of the cycle were treated with two i/m injections of prostaglandin analog and observed by transrectal ultrasonography for the day of ovulation (Defined as Day 0 of the wave). Heifers were then randomized into 4 groups (n=7 to 8 per group) and treated with normal saline (control group) or a single 3 mg i/m injection of cetrorelix on Day 1, Day 3 or Day 6 of the first follicular wave. […] Pregnancy diagnosis was done 30 days after artificial insemination.

[3] = tested on: bovine pituitary cells; assay: GnRH-induced LH secretion of bovine pituitary cells in vitro (Example 9); type: cell-based; settings: 300 μg cetrorelix, 340 μg Degarelix, 300 ug Abarelix, 130 μg Relugolix
Method: Methods: The heads of mature, non-pregnant cows (n=4) were collected from a local abattoir and the pituitary glands were dissected within 60 minutes of slaughter. Immediately following the dissection, the pituitaries were submerged into ice-cold collection medium. The pituitaries were washed 3 times in collection media and the neurohypophysis was dissected from the adenohypophysis. Using a scalpel, the adenohypophysis (anterior pituitary) was sliced into 1 mm×1 mm pieces and transferred to a 50 mL falcon tube containing DMEM medium with 0.5% BSA. The tissue pieces were washed by manually agitating the tube for 1 minute. The tissue pieces were allowed to settle to the bottom of the tube, then the supernatant was discarded. The macerated pieces were transferred to a 15 mL falcon tube with the dissociation medium and incubated at 37° C. for 60 minutes. Every 10 minutes the tube was vortexed for 1 minute to ensure the tissue was completely dissociated. The dissociation media was inactivated using DMEM with 10% SFB then manually agitating the tube for 1 minute. The dissociated cells were placed in a 40 μm cell strainer to remove the undigested tissue and placed into two 15 mL falcon tubes. The cells were centrifuged at 200×g for 10 minutes and the supernatant was discarded. The cells were washed three times by resuspending in DMEM solution with red blood cell lysing buffer followed by centrifuged at 200×g for 10 minutes. Then the cells were washed with DMEM solution and centrifuged at 200×g for 10 minutes. Following the last centrifugation, the cells were resuspended in DMEM, and the trypan blue test was used to determine the cell count and assess viability. DMEM with 10% fetal bovine serum (FBS) was treated with 10% charcoal-dextran and passed through a 0.2 μm filter. The cells were then plated in a 24-well tissue culture plate with a concentration of 1×10^6 viable cells per well and incubated at 37° C. for 24 hours. The following day, to starve the cells, the culture media was replaced with DMEM without FBS and left to incubate for another 24 hours.
Treatments: Based on the results from the pilot study, the selected concentration for Cetrorelix (cetrorelix acetate) was 300 μg. The cetrorelix was dissolved in trace levels of DMSO then dissolved in ultrapure water. To standardize the treatments, the nanomole concentration of each GnRH antagonist were matched with the cetrorelix nanomole concentration. The final concentration used for further experiments were: 300 μg for cetrorelix, 340 μg for Degarelix (Degarelix acetate), 300 ug for Abarelix (Abarelix acetate). Both degarelix and abarelix were dissolved ultrapure water. The equivalent Relugolix nanomole concentration was 130 μg which was dissolved in methanol. Treatment cells were preincubated for 60 minutes with either Cetrorelix, Degarelix, Relugolix or Abarelix. Following the preincubation, the cells were incubated for 30 minutes with either 1 nM or 10 nM of GnRH (Gonadorelin, Fertagyl, Merck Animal Health). GnRH doses were based on pituitary study by Paolicchi et al. 1999). The media were collected and centrifuged at 200×g for 10 minutes to remove the cells. Positive (Control) group was only treated with 1 nM and 10 nM of GnRH to determine the maximum LH secretion. LH concentrations in the culture medium was measured by a commercial bovine specific ELISA kit and reported as mIU/ml of medium.

[4] = single 3 mg i/m on Day 1 (Cetro 1)
[5] = single 3 mg i/m on Day 3 (Cetro 3)
[6] = single 3 mg i/m on Day 6 (Cetro 6)
[7] = three cetrorelix groups combined

Compound: CC(=O)N[C@H](Cc1ccc2ccccc2c1)C(=O)N[C@H](Cc1ccc(Cl)cc1)C(=O)N[C@H](Cc1cccnc1)C(=O)N[C@@H](CO)C(=O)N[C@@H](Cc1ccc(O)cc1)C(=O)N[C@H](CCCNC(N)=O)C(=O)N[C@@H](CC(C)C)C(=O)N[C@@H](CCCNC(=N)N)C(=O)N1CCC[C@H]1C(=O)N[C@H](C)C(N)=O [Cetrorelix, N-acetyl-3-(2-naphthyl)-D-alanyl-4-chloro-D-phenylalanyl-3-(3-pyridyl)-D-alanyl-L-seryl-L-tyrosyl-D-citrullyl-L-leucyl-L-arginyl-L-prolyl-D-alaninamide] (Ac-[d2Nal][dPhe(4-Cl)][d3Pal]SY[dCit]LRP[dA]-NH2)
- Duration from treatment to next wave emergence, mean [1]: 5.33 ± 0.70 days and 5.33 days
- Variance of duration from treatment to wave emergence (synchrony) [1]: 7.38
- Duration from treatment to next wave emergence, mean ([1]; listed as Cetro): 5.33 days
- Variance of duration from treatment to wave emergence (synchrony) ([1]; listed as Cetro): 7.381
- Duration from treatment to next wave emergence, mean ([1]; listed as cetrorelix): about 5.33±0.70 days
- Duration from Treatment to Wave Emergence ([1]; individual alpacas, single i/m injection of 1.5 mg Cetrorelix on random day of wave): 11 days and 3 days (2×) and 4 days (6×) and 9 days and 1 days and 6 days and 8 days (2×) and 7 days
- Wave emergence after the cetrorelix treatment irrespective of the phase of the dominant follicle ([2]; single 3 mg (about 7.5 ug/kg) i/m, groups combined): about 3.5±0.4 days
- Start of dominant follicle regression after cetrorelix treatment ([2]; single 3 mg i/m): ≤ 2 days
- Day of second wave emergence [2, 4]: 4.4 ± 0.5^c
- Days from second wave emergence to ovulation [2, 4]: 10.0 ± 0.6^ab* Days
- Pregnancy rate (Pregnant/AI, percent) [2, 4]: (62%)
- Treatment to wave emergence [2, 4]: 3.4 ± 0.5 days
- Pregnant/AI [2, 4]: 5/8
- Ovulatory follicle size [2, 4]: 14.4 ± 1.0
- Day of second wave emergence [2, 5]: 7.0 ± 0.4^b
- Days from second wave emergence to ovulation [2, 5]: 9.0 ± 0.4^ab Days
- Pregnancy rate (Pregnant/AI, percent) [2, 5]: (66%)
- Treatment to wave emergence (days) [2, 5]: 4.0 ± 0.4^ days
- Pregnant/AI [2, 5]: 4/6
- Ovulatory follicle size [2, 5]: 15.8 ± 0.6
- Day of second wave emergence [2, 6]: 9.4 ± 0.5^a
- Days from second wave emergence to ovulation [2, 6]: 8.4 ± 0.4^b Days
- Pregnancy rate (Pregnant/AI, percent) [2, 6]: (42%)
- Treatment to wave emergence [2, 6]: 3.4 ± 0.5 days
- Pregnant/AI [2, 6]: 3/7
- Ovulatory follicle size [2, 6]: 14.9 ± 0.3
- Overall pregnancy rate, percent [2, 7]: 57%
- Overall pregnancy rate, pregnant/AI [2, 7]: 12/21
- LH conc in medium ([3]; challenged with 1 nM GnRH 30 minutes after 60 minutes preincubation): 0.09 mIU/mL
- LH conc in medium ([3]; challenged with 10 nM GnRH 30 minutes after 60 minutes preincubation): 0.50 mIU/mL
